Laboratory results: patent US7189753B1, “Preemptive prophylaxis of migraine” (priority 1997, dated 2007)

Tested on: onset of the headache phase of migraine
Assay: Open label pilot study of oral naratriptan 2.5 mg taken as a single dose during prodrome
Type: in vivo, human
Experimental: An open label pilot study was conducted to determine whether oral naratriptan 2.5 mg taken as a single dose during the prodrome could prevent the onset of the headache phase of migraine. […] Twenty patients recruited at 4 study sites were administered oral naratriptan 2.5 mg after onset of prodrome symptoms for a total of 63 prodromes. […] The pain severity of headaches that were not prevented were reduced as compared to baseline pain severity of migraine attacks not treated with naratriptan. An additional 13 patients recruited at a fifth site were also treated. […] Upon review, all 13 patients reported onset of headache within 3 hours after administration of naratriptan. Eighty-seven percent of prodromes in this patient group were treated ≦2 hours before onset of headache.

CNS(=O)(=O)CCc1ccc2[nH]cc(C3CCN(C)CC3)c2c1.Cl [naratriptan, N-methyl-3-(1-methyl-4-piperidinyl)-1H-indole-5-ethanesulfonamide monohydrochloride]
headaches not prevented that occurred ≦2 hours after treatment (4 sites, 15 of the 25 headaches): 60% | pain severity of headaches that were not prevented, compared to baseline pain severity of attacks not treated with naratriptan (4 study sites, oral 2.5 mg): reduced | treated prodromes that did not progress to headache (20 patients at 4 study sites, 63 prodromes, oral 2.5 mg after onset of prodrome symptoms): Sixty | patients reporting headache following treatment (additional 13 patients at a fifth site): All 13 patients reported headache following each treatment | prodromes treated ≦2 hours before onset of headache (fifth site, 13 patients): Eighty-seven | onset of headache after administration (fifth site, all 13 patients): ≤ 3 h | preventing the onset of the headache phase of migraine (oral 2.5 mg single dose during prodrome, open label): effective in preventing the onset of the headache phase of migraine
